Assay results: patent US12540129B2, “KIF18A inhibitors” (AMGEN INC., priority 2019, dated 2026)

Target: T1, Recombinant human KIF18A (1-467 His-tagged) protein (Homo sapiens, UniProt Q8NI77)
T1 construct: Recombinant human KIF18A (1-467 His-tagged) protein; His; made in house
Assay: KIF18A Enzyme Assay: microtubule-stimulated ATPase activity (ADP-Glo)
Type: biochemical
Details: 30 nM KIF18A, 75 μM ATP
Outline: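 ADP-Glo luminescence reports ADP produced by His-tagged human KIF18A motor domain (1-467, insect-cell expressed) with microtubules and ATP.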

T1 sequence (Q8NI77 1-467): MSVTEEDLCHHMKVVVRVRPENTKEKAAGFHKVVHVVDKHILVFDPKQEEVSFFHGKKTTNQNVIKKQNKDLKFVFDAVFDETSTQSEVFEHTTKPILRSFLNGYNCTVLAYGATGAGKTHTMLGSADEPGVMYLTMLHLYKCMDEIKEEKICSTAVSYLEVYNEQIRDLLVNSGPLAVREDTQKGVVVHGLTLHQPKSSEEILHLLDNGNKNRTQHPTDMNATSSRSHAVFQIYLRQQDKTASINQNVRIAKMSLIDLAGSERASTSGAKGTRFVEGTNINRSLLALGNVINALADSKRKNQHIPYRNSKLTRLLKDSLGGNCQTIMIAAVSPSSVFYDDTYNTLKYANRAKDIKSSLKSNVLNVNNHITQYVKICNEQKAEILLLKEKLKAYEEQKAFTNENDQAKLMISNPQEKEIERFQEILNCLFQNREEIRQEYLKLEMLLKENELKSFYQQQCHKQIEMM
T1 sequence (P02550 whole entry partner): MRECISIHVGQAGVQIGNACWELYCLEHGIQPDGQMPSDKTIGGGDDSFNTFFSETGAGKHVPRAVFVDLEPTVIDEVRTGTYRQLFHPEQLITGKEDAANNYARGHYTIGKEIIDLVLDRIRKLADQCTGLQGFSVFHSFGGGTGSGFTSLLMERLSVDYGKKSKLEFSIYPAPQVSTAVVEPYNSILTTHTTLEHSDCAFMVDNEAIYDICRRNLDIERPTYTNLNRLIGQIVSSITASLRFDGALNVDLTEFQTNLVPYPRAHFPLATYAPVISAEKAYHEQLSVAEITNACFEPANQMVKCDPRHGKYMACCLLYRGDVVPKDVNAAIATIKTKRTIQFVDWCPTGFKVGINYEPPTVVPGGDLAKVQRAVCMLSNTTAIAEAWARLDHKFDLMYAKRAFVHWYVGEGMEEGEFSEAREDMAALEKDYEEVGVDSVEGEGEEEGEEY
T1 sequence (P02554 whole entry partner): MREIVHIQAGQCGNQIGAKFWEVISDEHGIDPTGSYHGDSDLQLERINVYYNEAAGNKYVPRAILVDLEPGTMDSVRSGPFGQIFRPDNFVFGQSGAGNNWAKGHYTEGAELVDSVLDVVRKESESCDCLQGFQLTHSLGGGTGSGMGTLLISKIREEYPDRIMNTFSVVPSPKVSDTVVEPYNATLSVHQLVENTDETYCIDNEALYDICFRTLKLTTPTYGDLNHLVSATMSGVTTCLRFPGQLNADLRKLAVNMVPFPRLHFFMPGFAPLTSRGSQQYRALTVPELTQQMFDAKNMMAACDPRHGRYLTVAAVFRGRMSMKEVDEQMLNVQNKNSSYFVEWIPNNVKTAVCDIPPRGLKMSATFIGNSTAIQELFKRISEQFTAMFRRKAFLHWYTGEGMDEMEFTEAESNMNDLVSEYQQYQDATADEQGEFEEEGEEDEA

Row | SMILES | IC50
1 | CC(C)(C)NC(=O)c1cccc(NC(=O)c2ccc(NC(C)(C)CO)nc2N2CCC3(CC2)CC3)c1 [Example 105-25, N-(3-(tert-butylcarbamoyl)phenyl)-6-((1-hydroxy-2-methylpropan-2-yl)amino)-2-(6-azaspiro[2.5]octan-6-yl)nicotinamide] | 314 nM
2 | CC(C)(CO)Nc1ccc(C(=O)Nc2cccc(N3CCCC3)c2)c(N2CCC3(CC2)CC3)n1 [Example 105-26, 6-((1-hydroxy-2-methylpropan-2-yl)amino)-N-(3-(pyrrolidin-1-yl)phenyl)-2-(6-azaspiro[2.5]octan-6-yl)nicotinamide] | 234 nM
3 | CC(C)(CO)Nc1ccc(C(=O)Nc2cccc(N3CCOCC3)c2)c(N2CCC3(CC2)CC3)n1 [Example 105-27, 6-((1-hydroxy-2-methylpropan-2-yl)amino)-N-(3-morpholinophenyl)-2-(6-azaspiro[2.5]octan-6-yl)nicotinamide] | 262 nM
4 | CC(C)(CO)Nc1ccc(C(=O)Nc2cccc(N3CCS(=O)(=O)CC3)c2)c(N2CCC3(CC2)CC3)n1 [Example 105-28, N-(3-(1,1-dioxidothiomorpholino)phenyl)-6-((1-hydroxy-2-methylpropan-2-yl)amino)-2-(6-azaspiro[2.5]octan-6-yl)nicotinamide] | 162 nM
5 | Cc1ccc(NC(=O)c2ccc(NC(C)(C)CO)nc2N2CCC3(CC2)CC3)cc1N1CCCC1=O [Example 105-29, 6-((1-hydroxy-2-methylpropan-2-yl)amino)-N-(4-methyl-3-(2-oxopyrrolidin-1-yl)phenyl)-2-(6-azaspiro[2.5]octan-6-yl)nicotinamide] | 279 nM
6 | Cc1ccc(NC(=O)c2ccc(NC(C)(C)CO)nc2N2CCC3(CC2)CC3)cc1N1CCOCC1 [Example 105-30, 6-((1-hydroxy-2-methylpropan-2-yl)amino)-N-(4-methyl-3-morpholinophenyl)-2-(6-azaspiro[2.5]octan-6-yl)nicotinamide] | 261 nM
7 | C[C@@H]1CN(c2cc(NC(=O)c3ccc(NC(C)(C)CO)nc3N3CCC4(CC3)CC4)ccc2F)CCO1 [Example 105-31, (R)-N-(4-fluoro-3-(2-methylmorpholino)phenyl)-6-((1-hydroxy-2-methylpropan-2-yl)amino)-2-(6-azaspiro[2.5]octan-6-yl)nicotinamide] | 199 nM
8 | C[C@@H]1CN(c2cc(F)cc(NC(=O)c3ccc(NC(C)(C)CO)nc3N3CCC4(CC3)CC4)c2)CCO1 [Example 105-32, (R)-N-(3-fluoro-5-(2-methylmorpholino)phenyl)-6-((1-hydroxy-2-methylpropan-2-yl)amino)-2-(6-azaspiro[2.5]octan-6-yl)nicotinamide] | 208 nM
9 | O=C(Nc1cccc(S(=O)(=O)C2CCCC2)c1)c1ccc(NC(CO)CO)nc1N1CCC2(CC1)CC2 [Example 106, N-(3-(Cyclopentylsulfonyl)phenyl)-6-((1,3-dihydroxypropan-2-yl)amino)-2-(6-azaspiro[2.5]octan-6-yl)nicotinamide] | 54 nM
10 | CC1(NS(=O)(=O)c2cccc(NC(=O)c3ccc(NC(CO)CO)nc3N3CCC4(CC3)CC4)c2)CCC1 [Example 106-1, 6-((1,3-dihydroxypropan-2-yl)amino)-N-(3-(N-(1-methylcyclobutyl)sulfamoyl)phenyl)-2-(6-azaspiro[2.5]octan-6-yl)nicotinamide] | 78 nM
11 | CC(C)(C)NS(=O)(=O)c1cccc(NC(=O)c2ccc(NC(CO)CO)nc2N2CCC3(CC2)CC3)c1 [Example 106-2, N-(3-(N-(tert-butyl)sulfamoyl)phenyl)-6-((1,3-dihydroxypropan-2-yl)amino)-2-(6-azaspiro[2.5]octan-6-yl)nicotinamide] | 109 nM
12 | CC(CO)(CO)Nc1ccc(C(=O)Nc2cccc(S(=O)(=O)C3CCCC3)c2)c(N2CCC3(CC2)CC3)n1 [Example 106-3, N-(3-(cyclopentylsulfonyl)phenyl)-6-((1,3-dihydroxy-2-methylpropan-2-yl)amino)-2-(6-azaspiro[2.5]octan-6-yl)nicotinamide] | 39 nM
13 | Cc1ccc(NC(=O)c2ccc(NC(C)(CO)CO)nc2N2CCC3(CC2)CC3)cc1S(=O)(=O)C1CCCC1 [Example 106-4, N-(3-(cyclopentylsulfonyl)-4-methylphenyl)-6-((1,3-dihydroxy-2-methylpropan-2-yl)amino)-2-(6-azaspiro[2.5]octan-6-yl)nicotinamide] | 40 nM
14 | CC(C)(C)NS(=O)(=O)c1cccc(NC(=O)c2ccc(NC(C)(CO)CO)nc2N2CCC3(CC2)CC3)c1 [Example 106-5, N-(3-(N-(tert-butyl)sulfamoyl)phenyl)-6-((1,3-dihydroxy-2-methylpropan-2-yl)amino)-2-(6-azaspiro[2.5]octan-6-yl)nicotinamide] | 53 nM
15 | CC(CO)(CO)Nc1ccc(C(=O)Nc2cccc(S(=O)(=O)NC3CC3)c2)c(N2CCC3(CC2)CC3)n1 [Example 106-6, N-(3-(N-cyclopropylsulfamoyl)phenyl)-6-((1,3-dihydroxy-2-methylpropan-2-yl)amino)-2-(6-azaspiro[2.5]octan-6-yl)nicotinamide] | 48 nM
16 | CC(O)(c1ccc(C(=O)Nc2cccc(S(=O)(=O)NC3CC3)c2)c(N2CCC3(CC2)CC3)n1)C(F)(F)F (stereo not drawn) [Example 108-1, N-(3-(N-cyclopropylsulfamoyl)phenyl)-2-(6-azaspiro[2.5]octan-6-yl)-6-(1,1,1-trifluoro-2-hydroxypropan-2-yl)nicotinamide] | 52 nM
17 | CC(O)(c1ccc(C(=O)Nc2cccc(S(=O)(=O)C3CCCC3)c2)c(N2CCC3(CC2)CC3)n1)C(F)(F)F (stereo not drawn) [Example 108-2, N-(3-(cyclopentylsulfonyl)phenyl)-2-(6-azaspiro[2.5]octan-6-yl)-6-(1,1,1-trifluoro-2-hydroxypropan-2-yl)nicotinamide] | 65 nM
18 | CC(C)(C)NS(=O)(=O)c1cccc(NC(=O)c2ccc(NS(C)(=O)=O)nc2N2CCC3(CC2)CC3)c1 [Example 110, N-(3-(N-(tert-butyl)sulfamoyl)phenyl)-6-(methylsulfonamido)-2-(6-azaspiro[2.5]octan-6-yl)nicotinamide] | 91 nM

Second part, the molecule after the results:

Row | IC50 | SMILES
19 | 265 nM | Cc1ccc(NC(=O)c2ccc(NC(C)(C)CO)nc2N2CCC3(CC2)CC3)cc1-c1ccoc1 [Example 111-1, N-(3-(furan-3-yl)-4-methylphenyl)-6-((1-hydroxy-2-methylpropan-2-yl)amino)-2-(6-azaspiro[2.5]octan-6-yl)nicotinamide]
20 | 277 nM | Cc1ccc(NC(=O)c2ccc(NC(C)(C)CO)nc2N2CCC3(CC2)CC3)cc1-c1ccco1 [Example 111-2, N-(3-(furan-2-yl)-4-methylphenyl)-6-((1-hydroxy-2-methylpropan-2-yl)amino)-2-(6-azaspiro[2.5]octan-6-yl)nicotinamide]
21 | 342 nM | Cc1ccc(NC(=O)c2ccc(NC(C)(C)CO)nc2N2CCC3(CC2)CC3)cc1-c1cc[nH]n1 [Example 111-3, 6-((1-hydroxy-2-methylpropan-2-yl)amino)-N-(4-methyl-3-(1H-pyrazol-3-yl)phenyl)-2-(6-azaspiro[2.5]octan-6-yl)nicotinamide]
22 | 349 nM | Cc1ccc(NC(=O)c2ccc(NC(C)(C)CO)nc2N2CCC3(CC2)CC3)cc1-c1nccs1 [Example 111-4, 6-((1-hydroxy-2-methylpropan-2-yl)amino)-N-(4-methyl-3-(thiazol-2-yl)phenyl)-2-(6-azaspiro[2.5]octan-6-yl)nicotinamide]
23 | 225 nM | Cc1coc(-c2cccc(NC(=O)c3ccc(NC(C)(C)CO)nc3N3CCC4(CC3)CC4)c2)n1 [Example 111-5, 6-((1-hydroxy-2-methylpropan-2-yl)amino)-N-(3-(4-methyloxazol-2-yl)phenyl)-2-(6-azaspiro[2.5]octan-6-yl)nicotinamide]
24 | 135 nM | Cc1cnc(-c2cccc(NC(=O)c3ccc(NC(C)(C)CO)nc3N3CCC4(CC3)CC4)c2)o1 [Example 111-6, 6-((1-hydroxy-2-methylpropan-2-yl)amino)-N-(3-(5-methyloxazol-2-yl)phenyl)-2-(6-azaspiro[2.5]octan-6-yl)nicotinamide]
25 | 417 nM | Cc1noc(-c2cccc(NC(=O)c3ccc(NC(C)(C)CO)nc3N3CCC4(CC3)CC4)c2)n1 [Example 111-7, 6-((1-hydroxy-2-methylpropan-2-yl)amino)-N-(3-(3-methyl-1,2,4-oxadiazol-5-yl)phenyl)-2-(6-azaspiro[2.5]octan-6-yl)nicotinamide]
26 | 542 nM | Cn1nccc1-c1cccc(NC(=O)c2ccc(NC(C)(C)CO)nc2N2CCC3(CC2)CC3)c1 [Example 111-8, 6-((1-hydroxy-2-methylpropan-2-yl)amino)-N-(3-(1-methyl-1H-pyrazol-5-yl)phenyl)-2-(6-azaspiro[2.5]octan-6-yl)nicotinamide]
27 | 437 nM | Cn1ccnc1-c1cccc(NC(=O)c2ccc(NC(C)(C)CO)nc2N2CCC3(CC2)CC3)c1 [Example 111-9, 6-((1-hydroxy-2-methylpropan-2-yl)amino)-N-(3-(1-methyl-1H-imidazol-2-yl)phenyl)-2-(6-azaspiro[2.5]octan-6-yl)nicotinamide]
28 | 303 nM | Cc1ccc(NC(=O)c2ccc(NC(C)(C)CO)nc2N2CCC3(CC2)CC3)cc1-c1ccccn1 [Example 111-10, 6-((1-hydroxy-2-methylpropan-2-yl)amino)-N-(4-methyl-3-(pyridin-2-yl)phenyl)-2-(6-azaspiro[2.5]octan-6-yl)nicotinamide]
29 | 306 nM | Cc1ccc(NC(=O)c2ccc(NC(C)(C)CO)nc2N2CCC3(CC2)CC3)cc1-c1cccnc1 [Example 111-11, 6-((1-hydroxy-2-methylpropan-2-yl)amino)-N-(4-methyl-3-(pyridin-3-yl)phenyl)-2-(6-azaspiro[2.5]octan-6-yl)nicotinamide]
30 | 386 nM | Cc1ccc(NC(=O)c2ccc(NC(C)(C)CO)nc2N2CCC3(CC2)CC3)cc1-c1ccncc1 [Example 111-12, 6-((1-hydroxy-2-methylpropan-2-yl)amino)-N-(4-methyl-3-(pyridin-4-yl)phenyl)-2-(6-azaspiro[2.5]octan-6-yl)nicotinamide]
